Reference: PubChem BioAssay AID328 (DTP/NCI, 2004)
Where “and” joins values, the source holds several entries; their conditions need not be identical. Equal values may be shown once. Inconclusive results and toxic doses are left out. How the source made its calls: active means survival T/C of 150% or more; inactive means T/C below 125% in these data.

Tested on: BDF1 mice, P388 leukemia ip, median survival T/C
Assay: NCI In Vivo Anticancer Drug Screen. Data for tumor model P388 Leukemia (intraperitoneal) in B6D2F1 (BDF1) mice
Settings: endpoint: median survival time, higher = longer survival
Method in brief: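 In tumour-bearing mice, survival after compound treatment is set against the vehicle group and given as a quotient.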

[1] = dose: 50.0 mg/kg/injection, schedule: Q01DX005 (ip), vehicle: saline with Tween-80
[2] = dose: 100.0 mg/kg/injection, schedule: Q01DX005 (ip), vehicle: saline with Tween-80
[3] = dose: 100.0 mg/kg/injection, schedule: Q04DX003 (ip), vehicle: Klucel (hydroxypropylcellulose) (HPC)
[4] = dose: 200.0 mg/kg/injection, schedule: Q04DX003 (ip), vehicle: Klucel (hydroxypropylcellulose) (HPC)
[5] = dose: 400.0 mg/kg/injection, schedule: Q04DX003 (ip), vehicle: Klucel (hydroxypropylcellulose) (HPC)
[6] = dose: 100.0 mg/kg/injection, schedule: Q01DX009 (ip), vehicle: Klucel (hydroxypropylcellulose) (HPC)
[7] = dose: 100.0 mg/kg/injection, schedule: Q01DX009 (ip), vehicle: saline with Tween-80
[8] = dose: 100.0 mg/kg/injection, schedule: Q04DX003 (ip), vehicle: saline with Tween-80
[9] = dose: 400.0 mg/kg/injection, schedule: Q04DX003 (ip), vehicle: saline with Tween-80
[10] = dose: 200.0 mg/kg/injection, schedule: Q01DX005 (ip), vehicle: saline with Tween-80
[11] = dose: 100.0 mg/kg/injection, schedule: Q04DX003 (ip), vehicle: saline
[12] = dose: 200.0 mg/kg/injection, schedule: Q04DX003 (ip), vehicle: saline
[13] = dose: 50.0 mg/kg/injection, schedule: Q01DX009 (ip), vehicle: saline with Tween-80
[14] = dose: 200.0 mg/kg/injection, schedule: Q01DX009 (ip), vehicle: saline with Tween-80
[15] = dose: 50.0 mg/kg/injection, schedule: Q04DX003 (ip), vehicle: saline
[16] = dose: 50.0 mg/kg/injection, schedule: Q01DX009 (ip), vehicle: Klucel (hydroxypropylcellulose) (HPC)

Measured: T/C

Cc1cc(S(=O)(=O)c2ccc(Cl)cc2)nc(S(=O)(=O)c2ccc(Cl)cc2)c1C#N
inactive: [1] 110 % of control | [2] 110 % of control

CC(=O)Nc1ccc(Cl)cc1C(=O)O
inactive: [3] 91 % of control | [4] 95 % of control | [5] 100 % of control

CC(=O)Nc1ccc([I+]c2ccc([N+](=O)[O-])cc2)cc1
inactive: dose: 12.5 mg/kg/injection, schedule: Q01DX009 (ip), vehicle: Klucel (hydroxypropylcellulose) (HPC) 99 % of control | dose: 25.0 mg/kg/injection, schedule: Q01DX009 (ip), vehicle: Klucel (hydroxypropylcellulose) (HPC) 101 % of control | dose: 25.0 mg/kg/injection, schedule: Q01DX009 (ip), vehicle: saline with Tween-80 119 % of control | dose: 75.0 mg/kg/injection, schedule: Q01DX009 (ip), vehicle: saline with Tween-80 116 % of control | [6] 118 % of control | [7] 115 % of control

CCCNC(=O)Nc1cc(Cl)ccc1OC
inactive: [8] 95 % of control | [9] 95 % of control

CC1(c2ccco2)NC(=O)N(Cl)C1=O (centres undefined)
inactive: dose: 50.0 mg/kg/injection, schedule: Q01DX009 (ip), vehicle: saline 89 % of control | dose: 100.0 mg/kg/injection, schedule: Q01DX009 (ip), vehicle: saline 98 % of control | dose: 200.0 mg/kg/injection, schedule: Q01DX009 (ip), vehicle: saline 105 % of control

O=C1CN(c2ccccc2)CC(=O)N2C(c3ccccc3)CCCN12 (centres undefined)
inactive: [1] 113 % of control | [2] 97 % of control | [10] 97 % of control

O=C(Cn1ccc(=O)[nH]c1=O)N1CCC2(CC1)SSC1(CCN(C(=O)Cn3ccc(=O)[nH]c3=O)CC1)S2
inactive: [11] 100 % of control | [12] 109 % of control | dose: 400.0 mg/kg/injection, schedule: Q04DX003 (ip), vehicle: saline 90 % of control

COC(=O)[C@H]1[C@H]2C[C@@H]3c4[nH]c5cc(OC)ccc5c4CCN3C[C@H]2C[C@@H](OC(=O)/C=C/c2cc(OC)c(OC)c(OC)c2)[C@@H]1OC
inactive: dose: 0.63 mg/kg/injection, schedule: Q01DX009 (ip), vehicle: saline with Tween-80 90 % of control | dose: 1.25 mg/kg/injection, schedule: Q01DX009 (ip), vehicle: saline with Tween-80 90 % of control | dose: 2.5 mg/kg/injection, schedule: Q01DX009 (ip), vehicle: saline with Tween-80 90 % of control

Cc1onc(-c2ccccc2)c1NC(=O)OCc1ccc(-c2cc(C(F)(F)F)cc(C(F)(F)F)c2)o1
inactive: [13] 97 % of control | [7] 99 % of control | [14] 99 % of control

Oc1ccc(Nc2ccccc2)cc1
inactive: dose: 100.0 mg/kg/injection, schedule: Q01DX001 (ip), vehicle: saline 95 % of control | dose: 200.0 mg/kg/injection, schedule: Q01DX001 (ip), vehicle: saline 100 % of control | dose: 400.0 mg/kg/injection, schedule: Q01DX001 (ip), vehicle: saline 100 % of control

O=C1c2ccccc2C(=O)c2c(NCCOCCO)ccc(NCCOCCO)c21
inactive: dose: 25.0 mg/kg/injection, schedule: Q01DX005 (ip), vehicle: saline with Tween-80 98 % of control | [1] 94 % of control | [2] 90 % of control | [10] 102 % of control

O=S(=O)(O)O.[O]=[V]
inactive: dose: 3.12 mg/kg/injection, schedule: Q01DX009 (ip), vehicle: saline 89 % of control | dose: 6.25 mg/kg/injection, schedule: Q01DX009 (ip), vehicle: saline 92 % of control | dose: 8.75 mg/kg/injection, schedule: Q01DX001 (ip), vehicle: saline 95 % of control | dose: 12.5 mg/kg/injection, schedule: Q01DX009 (ip), vehicle: saline 100 % of control | dose: 12.5 mg/kg/injection, schedule: Q04DX003 (ip), vehicle: saline 92 % of control and 100 % of control | dose: 17.5 mg/kg/injection, schedule: Q01DX001 (ip), vehicle: saline 100 % of control | dose: 25.0 mg/kg/injection, schedule: Q01DX009 (ip), vehicle: saline 100 % of control | dose: 25.0 mg/kg/injection, schedule: Q04DX003 (ip), vehicle: saline 95 % of control | dose: 35.0 mg/kg/injection, schedule: Q01DX001 (ip), vehicle: saline 100 % of control | dose: 50.0 mg/kg/injection, schedule: Q01DX001 (ip), vehicle: saline 90 % of control | [15] 89 % of control

COc1cc(C)ccc1C(=O)c1ccc(C)cc1OC
inactive: [3] 90 % of control | [4] 90 % of control | [5] 109 % of control

O=C(Nc1ccc2ncccc2c1)Nc1ccc2ncccc2c1
inactive: [16] 87 % of control | dose: 50.0 mg/kg/injection, schedule: Q04DX003 (ip), vehicle: Klucel (hydroxypropylcellulose) (HPC) 91 % of control | [6] 95 % of control | [3] 95 % of control | [4] 91 % of control

CCC(C)C(=O)OC1C(=O)OC2CC3C(C)=CC(=O)C(O)C3(C)C3C4(O)OCC23C1C(C)C4O (centres undefined)
inactive: dose: 0.06 mg/kg/injection, schedule: Q01DX009 (ip), vehicle: saline with Tween-80 117 % of control | dose: 0.25 mg/kg/injection, schedule: Q01DX009 (ip), vehicle: saline 121 % of control | dose: 1.0 mg/kg/injection, schedule: Q01DX009 (ip), vehicle: saline 111 % of control | dose: 2.0 mg/kg/injection, schedule: Q01DX009 (ip), vehicle: saline 124 % of control | dose: 8.0 mg/kg/injection, schedule: Q01DX009 (ip), vehicle: saline with Tween-80 95 % of control

O=C(/C=C\c1ccccc1)/C=C/c1ccccc1
inactive: dose: 100.0 mg/kg/injection, schedule: Q04DX003 (sc), vehicle: olive oil, sesame oil, peanut oil 100 % of control | dose: 200.0 mg/kg/injection, schedule: Q04DX003 (sc), vehicle: olive oil, sesame oil, peanut oil 100 % of control | dose: 400.0 mg/kg/injection, schedule: Q04DX003 (sc), vehicle: olive oil, sesame oil, peanut oil 100 % of control

O=C(Oc1ccc(Cl)cc1)c1ccc(C(=O)Oc2ccc(Cl)cc2)cc1
inactive: dose: 176.0 mg/kg/injection, schedule: Q04DX003 (ip), vehicle: saline with Tween-80 90 % of control | dose: 264.0 mg/kg/injection, schedule: Q04DX003 (ip), vehicle: saline with Tween-80 100 % of control | [9] 90 % of control

CCOC(=O)c1c(C)c2c(n1C)CCc1cn[nH]c1-2
inactive: [16] 103 % of control | [6] 120 % of control | dose: 200.0 mg/kg/injection, schedule: Q01DX009 (ip), vehicle: Klucel (hydroxypropylcellulose) (HPC) 106 % of control

O=C(O)CP(=O)(O)O
inactive: dose: 250.0 mg/kg/injection, schedule: Q03HX024 (ip), vehicle: saline 120 % of control

CC1CC(C)(C)N=C(CCC[N+](=O)[O-])O1 (centres undefined)
inactive: dose: 50.0 mg/kg/injection, schedule: Q04DX003 (ip), vehicle: saline sonified 105 % of control | dose: 100.0 mg/kg/injection, schedule: Q04DX003 (ip), vehicle: saline sonified 105 % of control | dose: 200.0 mg/kg/injection, schedule: Q04DX003 (ip), vehicle: saline sonified 105 % of control

CNC1=C2NC(=O)/C(C)=C\C=C\C(C)C(O)C(C)C(O)C(C)C(OC(C)=O)C(C)C(OC)/C=C/OC3(C)Oc4c(C)c(O)c(c(c4C3=O)C1=O)C2=O (centres undefined)
inactive: [13] 95 % of control | [7] 90 % of control | [14] 100 % of control

CC(=O)OC1CCC(C(C)(C)C)CC1 (centres undefined)
inactive: [15] 95 % of control | [11] 109 % of control | [12] 109 % of control

Cc1ccc([N+](=O)[O-])cc1NC(=O)SCCOC(=O)COc1ccc(Cl)cc1
inactive: [8] 95 % of control | dose: 200.0 mg/kg/injection, schedule: Q04DX003 (ip), vehicle: saline with Tween-80 100 % of control | [9] 109 % of control

CCCCCCCCCCCC(=O)CCCCC
inactive: dose: 100.0 mg/kg/injection, schedule: Q04DX003 (ip), vehicle: other 100 % of control | dose: 200.0 mg/kg/injection, schedule: Q04DX003 (ip), vehicle: other 100 % of control | dose: 400.0 mg/kg/injection, schedule: Q04DX003 (ip), vehicle: other 104 % of control
